Patent US20240108683A1, “Method for Side Effect Reduction in the Use of Statins Via Physiologically Synthesized Glutathione” (Proimmune Co. LLC, priority 2014, published 2024)

Assays:
[1] = as compared to L-cysteine; cited from earlier work
oxidized lipid products = test: Human clinical trial, scavenging of oxidized lipid products; assay type: in vivo
From the text: Moreover, the pharmacological effect of the composition of the instant invention as a replacement of the statin model was unexpected. […] Reason: the instant invention physiologically provides more rate-limiting L-cysteine available in the cell together with the other constituents of glutathione.

Question: With `N[C@@H](CSSC[C@H](N)C(=O)O)C(=O)O` [L-cystine] as the molecule, how does the water solubility [1] read?
Answer: water insoluble

Question: With `CC(=O)N[C@@H](CS)C(=O)O` [N-acetylcysteine] as the molecule, how does the “scavenging of oxidized lipid products” value (oxidized lipid products) read?
Answer: 1%
